Source: patent publication US20230346827A1 (priority 2020, published 2023)

Test system: rats subjected to sTBI
Assay: sTBI rats, LMW-DS 1, 5, 15 mg/kg s.c. 30 min post-TBI: HPLC of brain free amino acids (Example 4)
Type: in vivo, rat
[1] = 15 mg/kg repeated, 7 d post-sTBI

sodium salt of dextran sulfate [LMW-DS]
ALA (1 mg/kg, 2 d post-sTBI): 0.76 ± 0.08 nmol/g w.w.
ARG (1 mg/kg, 2 d post-sTBI): 0.13 ± 0.03 nmol/g w.w.
ASN (1 mg/kg, 2 d post-sTBI): 0.13 ± 0.02 nmol/g w.w.
ASP (1 mg/kg, 2 d post-sTBI): 4.17 ± 0.99 nmol/g w.w.
CITR (1 mg/kg, 2 d post-sTBI): 0.01 ± 0.01 nmol/g w.w.
GABA (1 mg/kg, 2 d post-sTBI): 1.87 ± 0.17 µmol/g w.w.
GLN (1 mg/kg, 2 d post-sTBI): 4.37 ± 0.59 nmol/g w.w.
GLU (1 mg/kg, 2 d post-sTBI): 12.52 ± 0.91 nmol/g w.w.
GLY (1 mg/kg, 2 d post-sTBI): 1.35 ± 0.26 nmol/g w.w.
HYS (1 mg/kg, 2 d post-sTBI): 0.08 ± 0.01 nmol/g w.w.
ILE (1 mg/kg, 2 d post-sTBI): 0.10 ± 0.02 nmol/g w.w.
L-Cystat (1 mg/kg, 2 d post-sTBI): 0.25 ± 0.05 nmol/g w.w.
LEU (1 mg/kg, 2 d post-sTBI): 0.09 ± 0.02 nmol/g w.w.
LYS (1 mg/kg, 2 d post-sTBI): 0.29 ± 0.11 nmol/g w.w.
MET (1 mg/kg, 2 d post-sTBI): 0.04 ± 0.01 nmol/g w.w.
ORN (1 mg/kg, 2 d post-sTBI): 0.02 ± 0.01 nmol/g w.w.
PHE (1 mg/kg, 2 d post-sTBI): 0.07 ± 0.03 nmol/g w.w.
SAH (1 mg/kg, 2 d post-sTBI): 0.07 ± 0.02 nmol/g w.w.
SER (1 mg/kg, 2 d post-sTBI): 0.91 ± 0.07 nmol/g w.w.
TAU (1 mg/kg, 2 d post-sTBI): 4.98 ± 0.47 nmol/g w.w.
THR (1 mg/kg, 2 d post-sTBI): 0.70 ± 0.15 nmol/g w.w.
TRP (1 mg/kg, 2 d post-sTBI): 0.02 ± 0.01 nmol/g w.w.
TYR (1 mg/kg, 2 d post-sTBI): 0.18 ± 0.03 nmol/g w.w.
VAL (1 mg/kg, 2 d post-sTBI): 0.07 ± 0.03 nmol/g w.w.
ALA (1 mg/kg, 7 d post-sTBI): 0.57 ± 0.06 nmol/g w.w.
ARG (1 mg/kg, 7 d post-sTBI): 0.13 ± 0.02 nmol/g w.w.
ASN (1 mg/kg, 7 d post-sTBI): 0.10 ± 0.02 nmol/g w.w.
ASP (1 mg/kg, 7 d post-sTBI): 4.17 ± 0.67 nmol/g w.w.
CITR (1 mg/kg, 7 d post-sTBI): 0.03 ± 0.01 nmol/g w.w.
GABA (1 mg/kg, 7 d post-sTBI): 1.73 ± 0.18 µmol/g w.w.
GLN (1 mg/kg, 7 d post-sTBI): 4.10 ± 0.42 nmol/g w.w.
GLU (1 mg/kg, 7 d post-sTBI): 12.14 ± 1.02 nmol/g w.w.
GLY (1 mg/kg, 7 d post-sTBI): 0.98 ± 0.20 nmol/g w.w.
L-Cystat (1 mg/kg, 7 d post-sTBI): 0.24 ± 0.04 nmol/g w.w.
MET (1 mg/kg, 7 d post-sTBI): 0.03 ± 0.01 nmol/g w.w.
ORN (1 mg/kg, 7 d post-sTBI): 0.01 ± 0.01 nmol/g w.w.
SAH (1 mg/kg, 7 d post-sTBI): 0.04 ± 0.01 nmol/g w.w.
SER (1 mg/kg, 7 d post-sTBI): 0.92 ± 0.16 nmol/g w.w.
THR (1 mg/kg, 7 d post-sTBI): 0.71 ± 0.12 nmol/g w.w.
ALA (5 mg/kg, 2 d post-sTBI): 0.79 ± 0.08 nmol/g w.w.
ARG (5 mg/kg, 2 d post-sTBI): 0.13 ± 0.03 nmol/g w.w.
ASN (5 mg/kg, 2 d post-sTBI): 0.17 ± 0.03 nmol/g w.w.
ASP (5 mg/kg, 2 d post-sTBI): 4.15 ± 0.95 nmol/g w.w.
CITR (5 mg/kg, 2 d post-sTBI): 0.02 ± 0.01 nmol/g w.w.
GABA (5 mg/kg, 2 d post-sTBI): 1.99 ± 0.18 µmol/g w.w.
GLN (5 mg/kg, 2 d post-sTBI): 4.55 ± 0.44 nmol/g w.w.
GLU (5 mg/kg, 2 d post-sTBI): 11.93 ± 0.55 nmol/g w.w.
GLY (5 mg/kg, 2 d post-sTBI): 1.43 ± 0.28 nmol/g w.w.
HYS (5 mg/kg, 2 d post-sTBI): 0.11 ± 0.02 nmol/g w.w.
ILE (5 mg/kg, 2 d post-sTBI): 0.10 ± 0.02 nmol/g w.w.
L-Cystat (5 mg/kg, 2 d post-sTBI): 0.31 ± 0.06 nmol/g w.w.
LEU (5 mg/kg, 2 d post-sTBI): 0.10 ± 0.02 nmol/g w.w.
LYS (5 mg/kg, 2 d post-sTBI): 0.37 ± 0.14 nmol/g w.w.
MET (5 mg/kg, 2 d post-sTBI): 0.05 ± 0.01 nmol/g w.w.
ORN (5 mg/kg, 2 d post-sTBI): 0.01 ± 0.01 nmol/g w.w.
PHE (5 mg/kg, 2 d post-sTBI): 0.07 ± 0.03 nmol/g w.w.
SAH (5 mg/kg, 2 d post-sTBI): 0.07 ± 0.02 nmol/g w.w.
SER (5 mg/kg, 2 d post-sTBI): 0.91 ± 0.07 nmol/g w.w.
TAU (5 mg/kg, 2 d post-sTBI): 5.15 ± 0.49 nmol/g w.w.
THR (5 mg/kg, 2 d post-sTBI): 0.77 ± 0.17 nmol/g w.w.
TRP (5 mg/kg, 2 d post-sTBI): 0.03 ± 0.01 nmol/g w.w.
TYR (5 mg/kg, 2 d post-sTBI): 0.20 ± 0.03 nmol/g w.w.
VAL (5 mg/kg, 2 d post-sTBI): 0.08 ± 0.03 nmol/g w.w.
ALA (5 mg/kg, 7 d post-sTBI): 0.44 ± 0.05 nmol/g w.w.
ARG (5 mg/kg, 7 d post-sTBI): 0.15 ± 0.02 nmol/g w.w.
ASN (5 mg/kg, 7 d post-sTBI): 0.10 ± 0.02 nmol/g w.w.
ASP (5 mg/kg, 7 d post-sTBI): 3.63 ± 0.59 nmol/g w.w.
CITR (5 mg/kg, 7 d post-sTBI): 0.03 ± 0.01 nmol/g w.w.
GABA (5 mg/kg, 7 d post-sTBI): 1.63 ± 0.17 µmol/g w.w.
GLN (5 mg/kg, 7 d post-sTBI): 3.86 ± 0.40 nmol/g w.w.
GLU (5 mg/kg, 7 d post-sTBI): 11.82 ± 0.99 nmol/g w.w.
GLY (5 mg/kg, 7 d post-sTBI): 0.88 ± 0.15 nmol/g w.w.
L-Cystat (5 mg/kg, 7 d post-sTBI): 0.26 ± 0.04 nmol/g w.w.
MET (5 mg/kg, 7 d post-sTBI): 0.04 ± 0.01 nmol/g w.w.
ORN (5 mg/kg, 7 d post-sTBI): 0.01 ± 0.01 nmol/g w.w.
SAH (5 mg/kg, 7 d post-sTBI): 0.04 ± 0.01 nmol/g w.w.
SER (5 mg/kg, 7 d post-sTBI): 0.83 ± 0.14 nmol/g w.w.
THR (5 mg/kg, 7 d post-sTBI): 0.71 ± 0.15 nmol/g w.w.
ALA [1]: 0.47 ± 0.05 nmol/g w.w.
ARG [1]: 0.19 ± 0.02 nmol/g w.w.
ASN [1]: 0.10 ± 0.02 nmol/g w.w.
ASP [1]: 2.42 ± 0.39 nmol/g w.w.
CITR [1]: 0.03 ± 0.01 nmol/g w.w.
GABA [1]: 1.38 ± 0.14 µmol/g w.w.
